Earlier results, collected in patent publication US20150093449A1, “Method of Using Silicon Substituted Phosphates to Improve Healing of Bone and Soft Tissue” (priority 2009, published 2015).

System: staph epidermis

silicon
glycoprotein slime formation: inhibits
